Laboratory results from ChEMBL document CHEMBL5053557, “Discovery of Novel Dual-Target Inhibitor of Bromodomain-Containing Protein 4/Casein Kinase 2 Inducing Apoptosis and Autophagy-Associated Cell Death for Triple-Negative Breast Cancer Therapy” (J Med Chem, 2021).
Calls of active or inactive are those of the source. The rule behind the calls is not given here.

Tests used:
MDA-MB-231 [1] = assay: Induction of autophagy in human MDA-MB-231 cells xenografted in nude BALB/c mouse assessed as increase in LC3II expression at 25 to 50 mg/kg, po administered once daily for 19 days by immunohistochemistry analysis; type: functional, organism-based; conditions: dose lower […], dose upper 50.0 mg/kg, time 19.0 day
MDA-MB-468 [2] = assay: Antitumor activity against human MDA-MB-468 cells xenografted in po dosed nude BALB/c mouse assessed as tumor growth inhibition administered once daily for 19 days and measured every 3 days; type: functional, organism-based; conditions: dose lower […], dose upper 50.0 mg/kg, time 19.0 day
MDA-MB-231 [3] = assay: Induction of apoptosis in human MDA-MB-231 cells assessed as up regulation of Bax after 24 hrs by Western blot analysis; type: functional, cell-based; conditions: dose 2.5-10 µM
MDA-MB-231 [4] = assay: Induction of autophagy in human MDA-MB-231 cells harboring GFP-mRFP-LC3 assessed as autophagic flux at 5 uM after 24 hrs by fluorescence microscopic analysis; type: functional, cell-based
MDA-MB-468 [5] = assay: Induction of autophagy in human MDA-MB-468 cells harboring GFP-mRFP-LC3 assessed as up regulation of LC3II level at 2.5 to 10 uM after 24 hrs by Western blot analysis; type: functional, cell-based; conditions: dose 2.5-10 µM
MDA-MB-231 [6] = assay: Induction of apoptosis in human MDA-MB-231 cells after 24 hrs by Hoechst 33258 staining fluorescence microscopic analysis; type: functional, cell-based; conditions: dose 2.5-10 µM
MDA-MB-468 [7] = assay: Induction of apoptosis in human MDA-MB-468 cells assessed as down regulation of Bcl2 after 24 hrs by Western blot analysis; type: functional, cell-based; conditions: dose 2.5-10 µM
MDA-MB-468 [8] = assay: Induction of apoptosis in human MDA-MB-468 cells assessed as up regulation of Bax after 24 hrs by Western blot analysis; type: functional, cell-based; conditions: dose 2.5-10 µM
[9] = target: Bromodomain-containing protein 4 (Homo sapiens, UniProt O60885); assay: Inhibition of BRD4 BD2 (unknown origin) incubated for 2 hrs by TR-FRET assay
Mus musculus [10] = assay: Toxicity in nude BALB/c mouse xenografted with human MDA-MB-468 cells assessed as morphological changes in liver at 25 to 50 mg/kg, po administered once daily for 19 days and measured every 3 days by H and E staining based assay; type: organism-based; conditions: in vivo, 456 h, dose 25-50 mg/kg, time 19 day
MDA-MB-468 [11] = assay: Induction of apoptosis in human MDA-MB-468 cells after 24 hrs by Hoechst 33258 staining fluorescence microscopic analysis; type: functional, cell-based; conditions: dose 2.5-10 µM
MDA-MB-468 [12] = assay: Inhibition of colony formation in human MDA-MB-468 cells after 7 days by crystal violet staining based assay; type: functional, cell-based; conditions: dose 2.5-10 µM, time 7.0 day
MDA-MB-231 [13] = assay: Antitumor activity against human MDA-MB-231 cells xenografted in nude BALB/c mouse assessed as tumor growth inhibition at 50 mg/kg, po administered once daily for 19 days and measured every 3 days; type: functional; conditions: MDA-MB-231, 456 h, time 19 day, read-out: TGI
MCF-10A = assay: Antiproliferative activity against human MCF-10A cells incubated for 24 hrs by MTT assay; type: cell-based
Mus musculus [14] = assay: Toxicity in nude BALB/c mouse xenografted with human MDA-MB-468 cells assessed as morphological changes in lung at 25 to 50 mg/kg, po administered once daily for 19 days and measured every 3 days by H and E staining based assay; type: organism-based; conditions: in vivo, 456 h, dose 25-50 mg/kg, time 19 day
Mus musculus [15] = assay: Toxicity in nude BALB/c mouse xenografted with human MDA-MB-231 cells assessed as change in body weight at 25 to 50 mg/kg, po administered once daily for 19 days and measured every 3 days; type: organism-based; conditions: in vivo, 456 h, dose 25-50 mg/kg, time 19 day
[16] = Apparent volume of distribution in Sprague-Dawley rat at 1 mg/kg, iv by LC-MS analysis; type: ADME, organism-based; conditions: in vivo, read-out: Vz
MDA-MB-468 [17] = assay: Induction of apoptosis in human MDA-MB-468 cells assessed as up regulation of cleaved caspase 3 after 24 hrs by Western blot analysis; type: functional, cell-based; conditions: dose 2.5-10 µM
[18] = target: Bromodomain testis-specific protein (Homo sapiens, UniProt Q58F21); assay: Inhibition of BRDT BD2 (unknown origin) incubated for 2 hrs by TR-FRET assay
[19] = target: Bromodomain-containing protein 2 (Homo sapiens, UniProt P25440); assay: Inhibition of BRD2 BD2 (unknown origin) incubated for 2 hrs by TR-FRET assay
Sequence of Bromodomain-containing protein 2 (P25440 whole entry): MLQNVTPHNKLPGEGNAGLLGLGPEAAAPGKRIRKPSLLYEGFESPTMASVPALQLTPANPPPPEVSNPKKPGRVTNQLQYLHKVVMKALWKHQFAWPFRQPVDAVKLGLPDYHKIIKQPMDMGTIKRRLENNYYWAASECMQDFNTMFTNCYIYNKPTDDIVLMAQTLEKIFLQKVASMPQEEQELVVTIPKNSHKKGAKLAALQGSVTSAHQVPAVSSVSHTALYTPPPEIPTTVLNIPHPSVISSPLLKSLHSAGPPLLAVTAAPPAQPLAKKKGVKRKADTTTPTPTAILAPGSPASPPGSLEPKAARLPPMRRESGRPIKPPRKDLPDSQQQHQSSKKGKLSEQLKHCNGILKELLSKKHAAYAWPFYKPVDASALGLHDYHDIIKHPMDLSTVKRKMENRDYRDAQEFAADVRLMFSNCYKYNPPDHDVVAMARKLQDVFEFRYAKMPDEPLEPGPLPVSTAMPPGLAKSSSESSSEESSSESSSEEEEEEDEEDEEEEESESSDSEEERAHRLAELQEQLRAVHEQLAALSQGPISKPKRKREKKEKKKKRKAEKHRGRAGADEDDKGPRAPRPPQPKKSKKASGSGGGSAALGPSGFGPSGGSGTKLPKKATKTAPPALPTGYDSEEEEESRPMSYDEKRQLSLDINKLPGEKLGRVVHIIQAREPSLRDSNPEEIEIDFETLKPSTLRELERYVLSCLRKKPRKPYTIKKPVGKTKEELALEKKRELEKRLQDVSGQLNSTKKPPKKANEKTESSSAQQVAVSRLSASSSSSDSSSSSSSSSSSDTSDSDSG

MDA-MB-231 [20] = assay: Induction of autophagy in human MDA-MB-231 cells at 5 uM preincubated with 3-MA for 1 hr followed by compound addition and measured after 24 hrs by fluorescence microscopic analysis; type: functional, cell-based
Mus musculus [21] = assay: Toxicity in nude BALB/c mouse xenografted with human MDA-MB-468 cells assessed as mortality at 25 to 50 mg/kg, po administered once daily for 19 days and measured every 3 days; type: organism-based; conditions: in vivo, 456 h, dose 25-50 mg/kg, time 19 day
[22] = target: T1, Bromodomain-containing protein 3 (Homo sapiens, UniProt Q15059); assay: Inhibition of BRD3 BD2 (unknown origin) incubated for 2 hrs by TR-FRET assay
T1 sequence (Q15059 whole entry): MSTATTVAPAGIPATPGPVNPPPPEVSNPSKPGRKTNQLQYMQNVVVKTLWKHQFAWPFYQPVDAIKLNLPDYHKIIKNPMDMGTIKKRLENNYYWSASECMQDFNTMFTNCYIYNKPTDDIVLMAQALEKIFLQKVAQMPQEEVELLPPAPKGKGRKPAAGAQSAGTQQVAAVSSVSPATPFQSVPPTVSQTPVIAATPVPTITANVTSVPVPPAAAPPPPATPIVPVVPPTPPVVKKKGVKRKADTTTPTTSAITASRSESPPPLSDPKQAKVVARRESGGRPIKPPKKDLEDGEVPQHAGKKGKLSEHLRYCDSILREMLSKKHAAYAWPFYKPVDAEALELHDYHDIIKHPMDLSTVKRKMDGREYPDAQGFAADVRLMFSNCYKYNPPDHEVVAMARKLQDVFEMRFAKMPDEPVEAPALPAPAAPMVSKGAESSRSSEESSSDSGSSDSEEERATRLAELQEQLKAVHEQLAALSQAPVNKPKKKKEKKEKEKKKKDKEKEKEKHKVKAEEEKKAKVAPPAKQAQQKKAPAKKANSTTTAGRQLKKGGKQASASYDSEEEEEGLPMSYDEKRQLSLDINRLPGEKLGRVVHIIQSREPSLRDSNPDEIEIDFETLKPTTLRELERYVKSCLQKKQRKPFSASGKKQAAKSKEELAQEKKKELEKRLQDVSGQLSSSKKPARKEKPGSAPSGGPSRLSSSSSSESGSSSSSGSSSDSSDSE

MDA-MB-231 [23] = assay: Induction of autophagy in human MDA-MB-231 cells harboring GFP-mRFP-LC3 assessed as down regulation of p62 level at 5 uM after 24 hrs by Western blot analysis; type: functional, cell-based
MDA-MB-231 [24] = assay: Induction of apoptosis in human MDA-MB-231 cells after 24 hrs by Annexin V-FITC/propidium iodide staining based flow cytometry; type: functional, cell-based; conditions: dose 2.5-10 µM
[25] = Oral bioavailability in Sprague-Dawley rat at 10 mg/kg by LC-MS analysis; type: ADME, organism-based; conditions: in vivo
Mus musculus [26] = assay: Down regulation of c-Myc expression in BALB/c SCID mouse xenogrfted with human MDA-MB-231 cells at 25 to 50 mg/kg, po administered once daily for 19 days by Western blot analysis; type: functional, organism-based; conditions: dose lower […], dose upper 50.0 mg/kg, time 19.0 day
[27] = target: T1, Bromodomain-containing protein 3; assay: Inhibition of BRD3 BD1 (unknown origin) incubated for 2 hrs by TR-FRET assay
Mus musculus [28] = assay: Down regulation of phosphorylation of AKT at S129 residue expression in BALB/c SCID mouse xenogrfted with human MDA-MB-231 cells at 25 to 50 mg/kg, po administered once daily for 19 days by Western blot analysis; type: functional, organism-based; conditions: dose lower […], dose upper 50.0 mg/kg, time 19.0 day
MDA-MB-468 [29] = assay: Induction of autophagy in human MDA-MB-468 cells harboring GFP-mRFP-LC3 assessed as autophagic flux at 5 uM after 24 hrs by fluorescence microscopic analysis; type: functional, cell-based
[30] = AUC(0 to infinity) in Sprague-Dawley rat at 1 mg/kg, iv by LC-MS analysis; type: ADME, organism-based; set-up: time infinity, dose 1 mg/kg, route iv; conditions: in vivo
Mus musculus [31] = assay: Down regulation of phosphorylation of AKT at S129 residue expression in BALB/c SCID mouse xenogrfted with human MDA-MB-231 cells at 25 to 50 mg/kg, po administered once daily for 19 days by immunohistochemistry analysis; type: functional, organism-based; conditions: dose lower […], dose upper 50.0 mg/kg, time 19.0 day
[32] = Cmax in Sprague-Dawley rat at 10 mg/kg, po by LC-MS analysis; type: ADME, organism-based; set-up: dose 10 mg/kg, route po; conditions: in vivo
[33] = target: Casein kinase II subunit alpha (Homo sapiens, UniProt P68400); assay: Inhibition of CK2 (unknown origin)
Sequence of Casein kinase II subunit alpha (P68400 whole entry): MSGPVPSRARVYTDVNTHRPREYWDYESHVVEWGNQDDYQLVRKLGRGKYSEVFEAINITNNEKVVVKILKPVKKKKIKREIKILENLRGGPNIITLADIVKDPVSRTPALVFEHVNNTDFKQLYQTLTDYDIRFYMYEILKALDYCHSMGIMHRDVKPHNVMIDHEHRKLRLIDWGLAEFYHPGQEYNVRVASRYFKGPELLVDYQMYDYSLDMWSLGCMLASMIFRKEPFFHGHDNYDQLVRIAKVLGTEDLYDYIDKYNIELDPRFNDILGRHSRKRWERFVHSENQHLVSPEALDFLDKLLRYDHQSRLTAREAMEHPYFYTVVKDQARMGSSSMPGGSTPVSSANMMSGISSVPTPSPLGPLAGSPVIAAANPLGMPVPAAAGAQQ

[34] = AUC(0 to t) in Sprague-Dawley rat at 1 mg/kg, iv by LC-MS analysis; type: ADME, organism-based; set-up: dose 1 mg/kg, route iv; conditions: in vivo
Mus musculus [35] = assay: Toxicity in nude BALB/c mouse xenografted with human MDA-MB-231 cells assessed as mortality at 25 to 50 mg/kg, po administered once daily for 19 days and measured every 3 days; type: organism-based; conditions: in vivo, 456 h, dose 25-50 mg/kg, time 19 day

With `COc1cc(OC)c2c(=O)[nH]c(-c3ccc(OCC(=O)Nc4ccc(N5CCN(C)CC5)c(Cl)c4)cc3)nc2c1` the Activity (MDA-MB-231 [1]) was “Active”, the Activity (MDA-MB-468 [2]) was “Active” and the Activity (MDA-MB-231 [3]) was “Dose-dependent effect”. For the same molecule, the Activity (MDA-MB-231 [4]) was “Active”, the Activity (MDA-MB-468 [5]) was “Active” and the Activity (MDA-MB-231 [6]) was “Dose-dependent effect”. The Activity (MDA-MB-468 [7]) was “Dose-dependent effect”, the Activity (MDA-MB-468 [8]) was “Dose-dependent effect” and the IC50 [9] was 0.098 µM. The Activity (Mus musculus [10]) was “Non-Toxic”, the Activity (MDA-MB-468 [11]) was “Dose-dependent effect” and the inhibition (MDA-MB-468 [12]) was “Dose-dependent effect”. For the same molecule, the inhibition in vivo at 50 mg/kg (MDA-MB-231 [13]) was 63.8%, the Activity (MCF-10A) was “Non-Toxic” and the Activity (Mus musculus [14]) was “Non-Toxic”. For the same molecule, the Activity (Mus musculus [15]) was “Non-Toxic”, the Vd [16] was 21.1 L/kg and the Activity (MDA-MB-468 [17]) was “Dose-dependent effect”. The IC50 [18] was greater than 10 µM, the IC50 [19] was 8.7 µM and the Activity (MDA-MB-231 [20]) was “inactive”. For the same molecule, the Activity (Mus musculus [21]) was “Non-Toxic”, the IC50 [22] was greater than 10 µM and the Activity (MDA-MB-231 [23]) was “Active”. The Activity (MDA-MB-231 [24]) was “Dose-dependent effect”, the F [25] was 32.5% and the Activity (Mus musculus [26]) was “Active”. For the same molecule, the IC50 [27] was 9.2 µM, the Activity (Mus musculus [28]) was “Active” and the Activity (MDA-MB-468 [29]) was “Active”. For the same molecule, the AUC [30] was 588 ng·h/mL, the Activity (Mus musculus [31]) was “Active” and the Cmax [32] was 206 ng/mL. The IC50 [33] was 0.23 µM, the AUC(0-t) [34] was 579 ng·h/mL and the Activity (Mus musculus [35]) was “Non-Toxic”.
